Converted amounts (≈) assume the structure as drawn. Where two headings read alike, the source gives them in different places.
What was measured:
Format in all cases: in vivo
[1] = test system: bean aphid (Aphis fabae Scop.); assay: Bean Aphid Foliage Spray Test; settings: foliar, read-out: Aphid LD50
Method: (§1) Suspensions of the test compounds were prepared by dissolving one gram of compound in 50 milliliters of acetone in which had been dissolved 0.1 gram (10 percent of the weight of compound) of an alkylphenoxy polyethoxyethanol surfactant, as an emulsifying or dispersing agent. The resulting solution was mixed into 150 milliliters of water to give roughly 200 milliliters of a suspension containing the compound in finely divided form. The thusprepared stock suspension contained 0.5 percent by weight of compound. The test concentrations in parts per million by weight employed in the tests described hereinbelow were obtained by appropriate dilutions of the stock suspension with water. The test procedures were as follows:
Bean Aphid Foliage Spray Test
Adults and nymphal stages of the bean aphid (Aphis fabae Scop.) reared on potted dwarf nasturtium plants at 65°-70° F. and 50-70 percent relative humidity, constituted the test insects. For testing purposes, the number of aphids per pot was standardized to 100-150 by trimming plants containing excess aphids.
The test compounds were formulated by diluting the stock suspension with water to give a suspension containing 500 parts of test compound per million parts of final formulation.
The potted plants (one pot per compound tested) infested with 100-150 aphids, were placed on a revolving turntable and sprayed with 100-110 milliliters of test compound formulation by use of a DeVilbiss spray gun set at 40 psig. air pressure. This application, which lasted 25 seconds, was sufficient to wet the plants to run-off. As a control, 100-110 milliliters of a water-acetone-emulsifier solution containing no test compound were also sprayed on infested plants. After spraying, the pots were placed on their sides on a sheet of white standard mimeograph paper which had been previously ruled to facilitate counting. Temperature and humidity in the test room during the 24 hour holding period were 65°-70° F. and 50-70 percent, respectively. Aphids which fell onto the paper and were unable to remain standing after being uprighted were considered dead. Aphis remaining on the plants were observed closely for movement and those which were unable to move the length of the body upon stimulation by prodding were considered dead. Percent mortality was recorded for various concentration levels.
(§2) In these tests the pesticidal activity of the compounds against aphid, mite, Southern Armyworm, Bean Beetle and House Fly was rated as follows:
(§3) Dashes indicate no test conducted.
(§4) The results set forth in TABLE I clearly show the broad spectrum pesticidal activity of the compounds of this invention, as well as their reduced mammalian toxicity. It will be understood that the insect and mite species employed in the above tests are merely representative of a wide variety of pests that can be controlled through the use of the compounds of this invention. A series of comparative tests were conducted to evaluate the relative biological properties of the compounds of the invention and certain prior art compounds. The test procedures employed are identical to those discussed above. The results are reported in the parts per million of the compound required for a 50% kill (LD50).

[2] = test system: southern armyworm (Prodenia eridania, (Cram.)); assay: Southern Armyworm Leaf Spray Test; settings: Spodoptera eridania, read-out: Southern Armyworm LD50
Method: as §1
Southern Armyworm Leaf Spray Test
Larvae of the southern armyworm (Prodenia eridania, (Cram.)), reared on Tendergreen bean plants at a temperature of 80°±5° F. and a relative humidity of 50±5 percent, constituted the test insects.
The test compounds were formulated by diluting the stock suspension with water to given a suspension containing 500 parts of test compound per million parts of final formulation. Potted Tendergreen bean plants of standard height and age were placed on a revolving turntable and sprayed with 100-110 milliliters of test compound formulation by use of a DeVilbiss spray gun set at 10 psig air pressure. This application, which lasted 25 seconds, was sufficient to wet plants to run-off. As a control, 100-110 milliliters of a water-acetone-emulsifier solution containing no test compound were also sprayed on infested plants. When dry, the paired leaves were separated and each one was placed in a 9 centimeter Petri dish lined with moistened filter paper. Five randomly selected larvae were introduced into each dish and the dishes were closed. The closed dishes were labeled and held at 80°-85° F. for three days. Although the larvae could easily consume the whole leaf within 24 hours, no more food was added. Larvae which were unable to move the length of the body, even upon stimulation by prodding, were considered dead. Percent mortality was recorded for various concentration levels.
as §2, §3, §4

[3] = test system: Mexican bean beetle (Epilachna varivestis, Muls.); assay: Mexican Bean Beetle Leaf Spray Test; settings: read-out: Mexican Bean Beetle LD50
Method: as §1
Mexican Bean Beetle Leaf Spray Test
Fourth instar larvae of the Mexican bean beetle Epilachna varivestis, Muls.), reared on Tendergreen bean plants at a temperature of 80°±5° F. and 50±5 percent relative humidity, were the test insects.
The test compounds were formulated by diluting the stock suspension with water to give a suspension containing 500 parts of test compound per million parts of final formulation. Potted Tendergreen bean plants of standard height and age were placed on a revolving turntable and sprayed with 100-110 milliliters of test compound formulation by use of a DeVilbiss spray gun set at 10 psig air pressure. This application, which lasted 25 seconds, was sufficient to wet plants to run-off. As a control, 100-110 milliliters of a water-acetone-emulsifier solution containing no test compound were also sprayed on infested plants. When dry, the paired leaves were separated and each was placed in a 9 centimeter Petri dish lined with moistened filter paper. Five randomly selected larvae were introduced into each dish, and the dishes were closed. The closed dishes were labeled and held at a temperature of 80°±5° F. for three days. Although the larvae could easily consume the leaf within 24 to 48 hours, no more food was added. Larvae which were unable to move the length of the body, even upon stimulation, were considered dead.
as §2, §3, §4

[4] = test system: house flies (Musca domestica, L.); assay: Fly Bait Test; settings: read-out: Housefly LD50
Method: as §1
Four to six day old adult house flies (Musca domestica, L.) reared according to the specifications of the Chemical Specialties Manufacturing Association (Blue Book, McNair-Dorland Co., N.Y. 1954; pages 243-244, 261) under controlled conditions of 80°±5° F. and 50±5 percent relative humidity, were the test insects. The flies were immobilized by anesthetizing with carbon dioxide and twenty five immobilized individuals, males and females, were transferred to a cage consisting of a standard food strainer about five inches in diameter which was inverted over a wrapping-paper-covered surface. The test compounds were formulated by diluting the stock suspension with a 10 percent (by weight) sugar solution to give a suspension containing 500 parts of test compound per million parts of final formulation, by weight. Ten milliliters of the test formulation were added to a souffle cup containing a one-inch square of an absorbent cotton pad. This bait cup was introduced and centered on the blotting paper under the food strainer prior to admitting the anesthetized flies. The caged flies were allowed to feed on the bait for 24 hours, at a temperature of 80°±5° F. and the relative humidity of 50±5 percent.
as §2, §3, §4

[5] = peroral toxicity to mammals (rat LD50); settings: rat, in vivo, po, rat
Method: (§5) Certain of these compositions were also evaluated to determine their peroral toxicity to mammals. The animal selected for this experiment was the rat. The test results obtained are expressed in terms of the number of milligrams of compositions per kilogram of weight of the animal required to achieve a mortality rate of 50 percent (LD50).
as §4

[6] = test system: rat; assay: peroral toxicity to mammals (rat LD50); settings: for times less toxic to mammals than compound 1: rat LD50 relative to compound 1; for times less toxic to mammals than compound 2: rat LD50 relative to compound 2
Method: as §5, §4

[7] = concentration required for a 50% kill, comparative test
[8] = comparative test, read-out: Rat LD50 (Table II)
[9] = peroral, mortality rate of 50 percent, read-out: Rat LD50 (Table I)

Structure (SMILES) | LC50 [1, 7] [µg/mL] | LC50 [2, 7] [µg/mL] | LC50 [3, 7] [µg/mL] | LC50 [4, 7] [µg/mL] | LD50 [5, 8] [mg/kg] | LC50 [1] [µg/mL] | LC50 [2] [µg/mL] | LC50 [3] [µg/mL] | LC50 [4] [µg/mL] | LD50 [5, 9] [mg/kg] | times less toxic to mammals than compound 1 [6] | times less toxic to mammals than compound 2 [6] | times less toxic to mammals as compound 2 (first of the two statements for compound 4) ([6]; rat LD50, printed relative to compound 2)
CNC(=O)Oc1cccc2c1OC(C)(C)C2 [Compound 1, 2,3-dihydro-2,2-dimethyl-7-benzofuranyl methyl carbamate, reference compound] | 2 (≈ 9.04 µM) | 90 (≈ 407 µM) | 12 (≈ 54.2 µM) | 12 (≈ 54.2 µM) | 5 | – | – | – | – | – | – | – | –
CN(SN(C)C(=O)Oc1cccc2c1OC(C)(C)C2)C(=O)Oc1cccc2c1OC(C)(C)C2 [Compound 2, reference compound] | – | – | – | – | 6.3 | 1 (≈ 2.12 µM) | 13 (≈ 27.5 µM) | 2 (≈ 4.23 µM) | 30 (≈ 63.5 µM) | – | – | – | –
CC(C)c1cccc(OC(=O)N(C)SN(C)C(=O)Oc2cccc3c2OC(C)(C)C3)c1 [Compound 3, [2,2-Dimethyl-2,3-dihydro-7-benzofuranyl methylcarbamate]N-[3-isopropylphenyl methylcarbamate]sulfide] | – | – | – | – | 80 | 1 (≈ 2.25 µM) | 20 (≈ 45 µM) | 3 (≈ 6.75 µM) | 22 (≈ 49.5 µM) | 80 | at least 16 times | at least 13 times | –
CN(SN(C)C(=O)Oc1cccc2c1OC(C)(C)C2)C(=O)Oc1ccc(C(C)(C)C)cc1 [Compound 4, [2,2-Dimethyl-2,3-dihydro-7-benzofuranyl methylcarbamate]N-[4-t-butylphenylmethylcarbamate]sulfide] | – | – | – | – | 45 | 2 (≈ 4.36 µM) | 23 (≈ 50.2 µM) | 18 (≈ 39.3 µM) | 17 (≈ 37.1 µM) | 45 | – | seven | nine
CN(SN(C)C(=O)Oc1cccc2c1OC(C)(C)C2)C(=O)Oc1ccc([N+](=O)[O-])cc1 [Compound 5] | – | – | – | – | 25.2 | 2 (≈ 4.47 µM) | 20 (≈ 44.7 µM) | 4 (≈ 8.94 µM) | 45 (≈ 101 µM) | – | five | four | –
CN(SN(C)C(=O)Oc1cccc2c1OC(C)(C)C2)C(=O)Oc1ccc([N+](=O)[O-])cc1 [[2,2-Dimethyl-2,3-dihydro-7-benzofuranyl methylcarbamate]N-(4-nitrophenyl methylcarbamate]sulfide] | – | – | – | – | – | – | – | – | – | 25 | – | – | –
CSc1ccc(OC(=O)N(C)SN(C)C(=O)Oc2cccc3c2OC(C)(C)C3)cc1C [[2,2-Dimethyl-2,3-dihydro-7-benzofuranylmethylcarbamate]N-[3-methyl-4-methylthiophenyl methylcarbamate]sulfide] | – | – | – | – | – | – | – | – | – | 18 | – | – | –
